Key:
male CD1 mice = assay: In vivo predictive sedation-hypnosis test (traveled distance); settings: Mus musculus, ip, 0.5 h, traveled distance over 30 min versus control, read-out: % inhib motor activity; for inhibition in vivo at 0.98 µmol/kg: 0.98 μmol/kg intraperitoneal; for inhibition in vivo at 98 µmol/kg: 98.0 μmol/kg intraperitoneal
Method: b) In Vivo Determination of Predictive Sedative-hypnotic Action
The in vivo effects of these compounds were assessed by a predictive sedation-hypnosis test in mice (D. J. Sanger et al., Eur. J. Pharmacol., 313, 35-42, 1996; and G. Griebel et al., Psychopharmacology, 146, 205-213, 1999).
Groups of 5-8 male CD1 mice, weighing 22-26 g at the time of test, were used. […] Compounds were suspended in 0.25% agar with one drop of Tween in a volume of 10 mL/kg. Control animals were given the vehicle alone. Using a Smart System (Panlab, S. L., Spain) the traveled distance in cm is recorded for each mouse at 5-minutes intervals during a period of 30 minutes after dosing. The inhibition percentage of traveled distance of treated animals versus control animals (the first 5 minutes were discarded) was calculated.

α1-GABAA receptor = assay: Ligand-binding assay, radiolabeled flumazenil competition, cerebellum membranes; settings: rat cerebellum membranes, radiolabeled flumazenil 1 nM
Method: (§1) a) Ligand-binding Assays. Determination of the Affinity of Test Compounds for α1- and α2-GABAA Receptor
(§2) Male Sprague-Dawley rats weighing 200-250 g at the time of experiment were used. After decapitation of the animal, the cerebellum (tissue that mostly contains α1-GABAA receptor) and spinal cord (tissue that mostly contains α2-GABAA receptor) were removed. The membranes were prepared according to the method by J. Lameh et al. (Prog. Neuro-Psychopharmacol. Biol. Psychiatry, 24, 979-991, 2000) and H. Noguchi et al. (Eur J Pharm, 434, 21-28, 2002) with slight modifications. Once the tissues weighed, they were suspended in 50 mM Tris.HCl (pH 7.4), 1:40 (v/v), or sucrose 0.32 M in the case of spinal cord, homogenized and then centrifuged at 20000 g for 10 minutes at 7° C. The resulting pellet was resuspended under the same conditions and centrifuged again. The pellet was finally resuspended on a minimum volume and kept at −80° C. overnight. A slight modification was used in the case of spinal cord at the first centrifugation step. Centrifugation speed was at 1000 g and the supernatant was collected instead of discarded as in cerebellum. Then, supernatant was centrifuged at 20000 g and resuspended twice more under the same conditions described above for cerebellum. On the next day, the process was repeated until the final pellet was resuspended at a ratio of 1:10 (v/v) in the case of cerebellum and at a ratio of 1:5 (v/v) in the case of spinal cord.
(§3) Affinity was determined by competitive tests using radiolabeled flumazenil as ligand. The tests were performed according to the methods described by S. Arbilla et al. (Eur. J. Pharmacol., 130, 257-263, 1986); and Y. Wu et al. (Eur. J. Pharmacol., 278, 125-132, 1995) using 96-well microtiter plates. The membranes containing the study receptors, flumazenil (radiolabeling at a final concentration of 1 nM) and ascending concentrations of test compounds (in a total volume of 230 μl in 50 mM [pH 7.4] Tris.HCl buffer) were incubated. Simultaneously, the membranes were only incubated with the radiolabeled flumazenil (total binding, 100%) and in the presence of an elevated concentration of unradiolabeled flumazenil (non-specific binding, % estimation of radiolabeled ligand). The reactions started on adding the radiolabeled ligand followed by incubation for 60 minutes at 4° C. At the end of the incubation period, 200 μl of reaction were transferred to a multiscreen plate (Millipore) and filtered using a vacuum manifold and then washed three times with cold test buffer. The multiscreen plates were equipped with a GF/B filter that retained the membranes containing the receptors and the radiolabeled ligand which had been bound to the receptors. After washing, the plates were left till dry. Once dried, scintillation liquid was added and left under stirring overnight. The next day the plates were counted using a Perkin-Elmer Microbeta scintillation counter.
(§4) For analysis of the results the percentage of specific binding for every concentration of test compound was calculated as follows: specific binding−(X−N/T−N)×100 where, X: amount of bound ligand for every concentration of compound. T: total binding, maximum amount bound to the radiolabeled ligand. N: non-specific binding, amount of radiolabeled ligand bound in a non-specific way irrespective of the receptor used.
(§5) Every concentrations of compound were tested in triplicate and their mean values were used to determine the experimental values of % specific binding versus the concentration of compound. Affinity data are expressed as % inhibition at 10^−5M and 10^−7M concentrations.

α2-GABAA receptor = assay: Ligand-binding assay, radiolabeled flumazenil competition, spinal cord membranes; settings: rat spinal cord membranes, radiolabeled flumazenil 1 nM
Method: as §1, §2, §3, §4, §5

| Structure (SMILES) | inhibition in vivo at 0.98 µmol/kg (male CD1 mice) | inhibition in vivo at 98 µmol/kg (male CD1 mice) | % inhib 10^−5 M, affinity for the α1-subunit of the GABAA receptor (α1-GABAA receptor) | % inhib 10^−7 M, affinity for the α1-subunit of the GABAA receptor (α1-GABAA receptor) | % inhib 10^−5 M, affinity for the α2-subunit of the GABAA receptor (α2-GABAA receptor) | % inhib 10^−7 M, affinity for the α2-subunit of the GABAA receptor (α2-GABAA receptor) |
| --- | --- | --- | --- | --- | --- | --- |
| CCCN(CCC)C(=O)Cc1c(-c2ccccc2)nc2ccc(OC)nn12 [Example 26, 2-(6-Methoxy-2-phenyl-imidazo[1,2-b]pyridazin-3-yl)-N,N-dipropyl-acetamide] | 19.2% | 91.5% | 100.0% | 73.5% | 84.5% | 27.4% |
| CCCN(CCC)C(=O)Cc1c(-c2ccccc2)nc2ccc(C)nn12 [Example 35, 2-(6-Methyl-2-phenyl-imidazo[1,2-b]pyridazin-3-yl)-N,N-dipropyl-acetamide] | 6.76% | 80.6% | 100.2% | 97.5% | 92.5% | 57.9% |
| CCCN(CCC)C(=O)Cc1c(-c2ccc(F)cc2)nc2ccc(OC)nn12 [Example 41, 2-[2-(4-Fluoro-phenyl)-6-methoxy-imidazo[1,2-b]pyridazin-3-yl]-N,N-dipropyl-acetamide] | 15.7% | 91.2% | 99.8% | 75.4% | 85.3% | 17.0% |
| CCCN(CCC)C(=O)Cc1c(-c2ccc(F)cc2)nc2ccc(OCC)nn12 [Example 43, 2-[6-Ethoxy-2-(4-fluoro-phenyl)-imidazo[1,2-b]pyridazin-3-yl]-N,N-dipropyl-acetamide] |  | 95.7% | 99.5% | 49.9% | 80.3% | 20.1% |
| COc1ccc2nc(-c3ccc(F)cc3)c(CC(=O)N3CCCCC3)n2n1 [Example 65, 2-[2-(4-Fluoro-phenyl)-6-methoxy-imidazo[1,2-b]pyridazin-3-yl]-1-piperidin-1-yl-ethanone] |  | 95.5% | 99.5% | 58.5% | 78.5% | 16.3% |
| CCOc1ccc2nc(-c3ccc(F)cc3)c(CC(=O)N(CC)CC)n2n1 [Example 66, 2-[6-Ethoxy-2-(4-fluoro-phenyl)-imidazo[1,2-b]pyridazin-3-yl]-N,N-diethyl-acetamide] |  | 96% | 98.3% | 50.4% | 79.4% | 7.8% |
| CCOc1ccc2nc(-c3ccc(F)cc3)c(CC(=O)N3CCCCC3)n2n1 [Example 67, 2-[6-Ethoxy-2-(4-fluoro-phenyl)-imidazo[1,2-b]pyridazin-3-yl]-1-piperidin-1-yl-ethanone] |  | 90.8% | 98.9% | 42.2% | 83.7% | 8.8% |
| CCN(CC)C(=O)Cc1c(-c2ccc(OC)cc2)nc2ccc(C)nn12 [Example 70, N,N-Diethyl-2-[2-(4-methoxy-phenyl)-6-methyl-imidazo[1,2-b]pyridazin-3-yl]-acetamide] |  | 87% | 99.9% | 84.5% | 80.3% | 23.6% |
| CCCN(CCC)C(=O)Cc1c(-c2ccc(OC)cc2)nc2ccc(C)nn12 [Example 71, 2-[2-(4-Methoxy-phenyl)-6-methyl-imidazo[1,2-b]pyridazin-3-yl]-N,N-dipropyl-acetamide] |  | 96% | 100.2% | 95.0% | 88.5% | 50.6% |
| COc1ccc(-c2nc3ccc(OC)nn3c2CC(=O)N2CCCCC2)cc1 [Example 78, 2-[6-Methoxy-2-(4-methoxy-phenyl)-imidazo[1,2-b]pyridazin-3-yl]-1-piperidin-1-yl-ethanone] |  | 91.1% | 98.3% | 26.5% |  |  |
| Cc1ccc(NC(=O)Cc2c(-c3ccc(C)cc3)nc3ccc(C)nn23)cc1 [Example 87, 2-(6-Methyl-2-p-tolyl-imidazo[1,2-b]pyridazin-3-yl)-N-p-tolyl-acetamide] |  | 90.7% | 99.3% | 57.2% |  |  |
| Cc1ccc(-c2nc3ccc(C)nn3c2CC(=O)NC2CCCC2)cc1 [Example 91, N-Cyclopentyl-2-(6-methyl-2-p-tolyl-imidazo[1,2-b]pyridazin-3-yl)-acetamide] |  | 93% | 99.1% | 45.8% |  |  |
| Cc1ccc(-c2nc3ccc(C)nn3c2CC(=O)NC2CC2)cc1 [Example 93, N-Cyclopropyl-2-(6-methyl-2-p-tolyl-imidazo[1,2-b]pyridazin-3-yl)-acetamide] |  | 93.2% | 100.0% | 78.2% |  |  |
| Cc1ccc(-c2nc3ccc(C)nn3c2CC(=O)Nc2ccc3ccccc3n2)cc1 [Example 94, 2-(6-Methyl-2-p-tolyl-imidazo[1,2-b]pyridazin-3-yl)-N-quinolin-2-yl-acetamide] |  | 93.5% | 100.1% | 65.1% |  |  |
| Cc1ccc(-c2nc3ccc(C)nn3c2CC(=O)NN2CCOCC2)cc1 [Example 105, 2-(6-Methyl-2-p-tolyl-imidazo[1,2-b]pyridazin-3-yl)-N-morpholin-4-yl-acetamide] |  | 94% | 98.8% | 56.0% |  |  |
| Cc1ccc(-c2nc3ccc(C)nn3c2CC(=O)NN2CCCCC2)cc1 [Example 106, 2-(6-Methyl-2-p-tolyl-imidazo[1,2-b]pyridazin-3-yl)-N-piperidin-1-yl-acetamide] |  | 94% | 99.5% | 53.7% |  |  |

Source: patent publication US8993562B2, “Imidazo[1,2-b]pyridazines, processes, uses, intermediates and compositions” (Ferrer Internacional, S.A., priority 2006, dated 2015)
